Patent publication US5610158A, “4-oxo- and 4H-imidazo(5,1-c)(1,4)benzoxazines useful as benzodiazepine receptor-binding agents” (The Upjohn Company, priority 1994, dated 1997)
pKi: −log10 of the molar value.

Molecular target: benzodiazepine receptors
Experiment: displacement of radioactive labelled flunitrazepam from benzodiazepine receptors
Type: binding
Protocol: In the following Table, Ki values are shown for Examples 1-19 which include comparative compounds 1, 7, 9 and 11, which are not compounds of the subject invention but are structurally similar.
The Ki value is determined from a concentration response curve obtained in the presence and absence of a fixed concentration of competitive […], flunitrazepam. […] The lower Ki value indicates a higher affinity for benzodiazepine.

Row | SMILES | pKi
1 | c1ccc2c(c1)OCc1c(-c3noc(C4CC4)n3)ncn1-2 [Example 1, 3-(5-Cyclopropyl-1,2,4-oxadiazol-3-yl)-4H-imidazo(5,1-c)(1,4)benzoxazine, reference compound] | 7.40
2 | CC(C)(C)OC(=O)Nc1ccc2c(c1)OCc1c(-c3noc(C4CC4)n3)ncn1-2 [Example 2, 7-(Amino(t-butoxycarbonyl))-3-(5-cyclopropyl-1,2,4-oxadiazol-3-yl)-4H-imidazo(5,1-c)(1,4)benzoxazine] | 5.00
3 | O=C(OC1Oc2ccccc2-n2cnc(-c3noc(C4CC4)n3)c21)c1ccccc1 (stereo not shown) [Example 3, 3-(5-Cyclopropyl-1,2,4-oxadiazol-3-yl)-4-(benzoyloxy)-4H-imidazo(5,1-c)(1,4)benzoxazine] | 6.92
4 | OC1Oc2ccccc2-n2cnc(-c3noc(C4CC4)n3)c21 (stereo not shown) [Example 4, 3-(5-Cyclopropyl-1,2,4-oxadiazol-3-yl)-4-hydroxy-4H-imidazo(5,1-c)(1,4)benzoxazine] | 6.93
5 | Nc1ccc2c(c1)OCc1c(-c3noc(C4CC4)n3)ncn1-2 [Example 5, 7-Amino-3-(5-cyclopropyl-1,2,4-oxadiazol-3-yl)-4H-imidazo(5,1-c)(1,4)benzoxazine] | 7.18
6 | CC(C)(C)OC(=O)Nc1ccc2c(c1)OC(OC(=O)c1ccccc1)c1c(-c3noc(C4CC4)n3)ncn1-2 (stereo not shown) [Example 6, 7-(Amino(t-butoxycarbonyl))3-(5-cyclopropyl-1,2,4-oxadiazol-3-yl)-4-(benzoyloxy)-4H-imidazo(5,1-c)(1,4)benzoxazine] | 5.00
7 | CCOC(=O)c1ncn2c1COc1ccccc1-2 [Example 7, Ethyl 4H-imidazo(5,1-c)(1,4)benzoxazine-3-carboxylate, reference compound] | 7.22
8 | O=C(Nc1ccc2c(c1)OCc1c(-c3noc(C4CC4)n3)ncn1-2)C(F)(F)F [Example 8, 7-(Amino(trifluoroacetyl))-3-(5-cyclopropyl-1,2,4-oxadiazol-3-yl)-4H-imidazo(5,1-c)(1,4)benzoxazine] | 5.00
9 | c1ccc2c(c1)OCc1c(-c3nc(C4CC4)no3)ncn1-2 [Example 9, 3-(3-Cyclopropyl-1,2,4-oxadiazol-5-yl)-4H-imidazo(5,1-c)(1,4)benzoxazine, reference compound] | 7.14
10 | O=c1oc2ccccc2n2cnc(-c3noc(C4CC4)n3)c12 [Example 10, 3-(5-Cyclopropyl-1,2,4-oxadiazol-3-yl)-4-oxo-4H-imidazo(5,1-c)(1,4)benzoxazine] | 6.18
11 | CC(C)(C)OC(=O)c1ncn2c1COc1ccccc1-2 [Example 11, Tert-butyl 4H-imidazo(5,1-c)(1,4)benzoxazine-3-carboxylate, reference compound] | 7.16
12 | CC1Oc2ccccc2-n2cnc(-c3noc(C4CC4)n3)c21 (stereo not shown) [Example 12, 3-(5-Cyclopropyl-1,2,4-oxadiazol-3-yl)-4-methyl-4H-imidazo(5,1-c)(1,4)benzoxazine] | 6.94
13 | Fc1ccc2c(c1)OCc1c(-c3noc(C4CC4)n3)ncn1-2 [Example 13, 3-(5-Cyclopropyl-1,2,4-oxadiazol-3-yl)-7-fluoro-4H-imidazo(5,1-c)(1,4)benzoxazine] | 8.07
14 | CC1(C)Oc2ccccc2-n2cnc(-c3noc(C4CC4)n3)c21 [Example 14, 3-(5-Cyclopropyl-1,2,4-oxadiazol-3-yl)-4,4-dimethyl-4H-imidazo(5,1-c)(1,4)benzoxazine] | 7.17
15 | CCOC(=O)c1ncn2c1COc1cc(F)ccc1-2 [Example 15, Ethyl 7-fluoro-4H-imidazo(5,1-c)(1,4)benzoxazine-3-carboxylate] | 8.34
16 | CC(C)(C)OC(=O)c1ncn2c1COc1cc(F)ccc1-2 [Example 16, Tert-butyl 7-fluoro-4H-imidazo(5,1-c)(1,4)benzoxazine-3-carboxylate] | 7.49
17 | CC(C)(C)c1nc(-c2ncn3c2COc2cc(F)ccc2-3)no1 [Example 17, 3-(5-Tert-butyl-1,2,4-oxadiazol-3-yl)-7-fluoro-4H-imidazo(5,1-c)(1,4)benzoxazine] | 6.35
18 | CN(C)c1noc(-c2ncn3c2COc2cc(F)ccc2-3)n1 [Example 18, 3-(3-dimethylamino-1,2,4-oxadiazol-5-yl)-7-fluoro-4H-imidazo(5,1-c)(1,4)benzoxazine] | 6.81
19 | CC(C)(C)OC(=O)c1ncn2c1COc1c-2ccc(F)c1C#N [Example 19, Tert-butyl 6-cyano-7-fluoro-4H-imidazo(5,1-c)(1,4)benzoxazine-3-carboxylate] | 8.34
